Entries after “also recorded” stand apart in the source; their conditions may differ.
Key:
ASC oligomerization [1] = test: Alu RNA induced ASC oligomerization in THP1 cells after siRNA knockdown; assay type: cell-based, human; conditions: siRNA knockdown (FIG. 12A)
Description: (§1) FIGS. 12A and 12B. DDX17 knockdown blocks Alu RNA (SEQ ID NO: 86) induced ASC oligomerization and IL-1β release. FIG. 12A. siRNA mediated DDX17 knockdown (siRNA for DDX17: CCAAUCUGAUGUAUCAGGA; SEQ ID NO: 91), but not Ddx5 (siRNA for DDX5: GGAAAUUACAGUUAGAGGU; SEQ ID NO: 89) in THP1 cells, blocked Alu RNA (SEQ ID NO: 86) induced ASC oligomerization. The band of ASC oligomers were indicated by black arrow. FIG. 12B. siRNA mediated DDX17 knockdown, but not Ddx5 in THP1 cells, blocked Alu RNA (SEQ ID NO: 86) induced IL-1β release.
(§2) To further confirm that DDX17 is the sensor for NLRC4, we investigated caspase-1 cleavage by immunoblotting and IL-1β secretion by ELISA in Alu RNA (SEQ ID NO: 86) or mock treated THP1 cells and DDX17 KO BMDMs respectively.

IL-1β = test: Alu RNA induced IL-1β release in THP1 cells after siRNA knockdown, ELISA; assay type: cell-based, human; conditions: siRNA knockdown (FIG. 12B)
Description: as §1, §2

RPE degeneration [2] = test: Alu RNA induced RPE degeneration in mice, fundus images and ZO-1 staining; assay type: in vivo; conditions: mice, subretinal Alu RNA; fundus and ZO-1 (FIGS. 25B, 26)
Protocol: (§3) FIGS. 25A and 25B. NLRC4 knockdown blocks Alu RNA (SEQ ID NO: 86) induced ASC oligomerization and RPE degeneration. Human RPE cell treated with siRNA target on NLRC4 (SMARTPOOL siRNA for NLRC4: CAACUGGGCUCCUCUGUAA; SEQ ID NO: 93) and NAIP (SMARTPOOL siRNA for NAIP: GUAAAGAGCUAUAUGGAUA; SEQ ID NO: 94), 24 hours later, treated with Alu RNA (SEQ ID NO: 86 at 100 pmol) FIG. 25A. […] The band of ASC oligomers was indicated by black arrow. […] The hyperdense areas due to the RPE degeneration in fundus images and ZO-1 disorganizations in RPE sheet are indicated by white arrows.
FIG. 26. […] Wilde type of C57/B6 mice were intravitreally injected with siRNA target on Ddx17 (siRNA for Ddx17: GGCUAGAUGUGGAAGAUGU; SEQ ID NO: 95), and two days later, Nlrc4^−/−, Naip1-6^−/−, mice and Ddx17 knockdown mice were subretinally injected with Alu RNA (SEQ ID NO: 86). […] The hyperdense areas due to the RPE degeneration in fundus images and ZO-1 disorganizations in RPE sheet are indicated by white arrows.
(§4) Next, we asked whether Alu RNA (SEQ ID NO: 86) also triggered NLRC4 inflammasome activation in human RPE cells. We performed immunofluorescence staining experiments to examine whether Alu RNA (SEQ ID NO: 86) can induce NLRC4 speck formation in human RPE cells. We noticed punctate structures resembling specks of NLRC4 in human RPE cells in response to Alu RNA (SEQ ID NO: 86) treatment (FIG. 24A). […] We further investigated downstream events of NLRC4 inflammasome activation by studying NLRC4-induced ASC oligomerization, a critical step involved in caspase-1 cleavage. NLRC4 siRNA, when co-administered with Alu RNA (SEQ ID NO: 86), blocked ASC oligomerization in vitro (FIG. 25A) and RPE degeneration in vivo (FIG. 25B).
We delivered Alu RNA (SEQ ID NO: 86) or Alu RNA (SEQ ID NO: 86)+siDDX17 subretinally in WT or NLRC4 KO or NAIP1-6 KO mice and examined for RPE degeneration using fundus photos and ZO-1 staining as described previously.

p-NLRC4 and caspase-1 = test: Dicer1 knockdown induced inflammasome activation in BMDM, immunoblot; assay type: cell-based, mouse
Description: FIGS. 20A and 20B. DDX17-NLRC4-NLRP3 are required for Dicer1 knockdown induced inflammasome activation. FIG. 20A. Dicer1 knockdown (siRNA for Dicer 1: GCAGUUGUCCUAAACAGAU; SEQ ID NO: 92) causes increase of p-NLRC4 and caspase-1 activation, which were blocked in Ddx17^−/− iBMDMs. FIG. 20B. Dicer1 knockdown-induced caspase-1 cleavage was impaired in Nlrc4^−/− and Nlrp3^−/− BMDMs. The caspase-1 (p20) bands are indicated with black arrows.
We have previously shown that DICER deficiency mediated accumulation of Alu RNA induces NLRP3 inflammasome activation. So we examined whether DICER knockdown could also induce DDX17-NLRC4-NLRP3 signaling. WT and DDX17 KO BMDMs were transfected with siDICER to examine NLRC4 phosphorylation and caspase-1. […] We then determined phosphorylation of NLRC4 and caspase-1 activation in WT, NLRC4 KO and NLRP3 KO BMDMs after transfection with siDICER or sicontrol.

NLRP3/NLRC4 complex = test: Biotin-streptavidin pulldown of biotin-labeled NRTIs with NLRC4/NLRP3, immunoblot; assay type: binding; conditions: immunoblot (FIG. 33)
Protocol: FIG. 33. NRTIs directly bind to NLRP3/NLRC4 complex in a reconstituted system. HEK293 cell were transfected with NLRC4 and NLRP3. Biotin-Labeled NRTIs (D4T, AZT) were added to the HEK cells 4 hours later, and cell pellets were collected for biotin streptavidin pulldown. Binding between NRTIs and NLRC4/NLRP3 was detected by immunoblot. […] The bands of NLRC4 and NLRP3 pulled down with biotinylated NRTI are indicated with black arrows.
Finally, we sought to investigate the mechanism through which NRTIs inhibit NLRC4 inflammasome and asked whether this is NLRP3 dependent. We transfected WT and NLRP3 KO BMDMs with flagellin to examine caspase-1 activation using immunoblot. […] To further confirm the mechanism of action of NRTIs, we investigated whether they directly bind to NLRP3/NLRC4 complex in a reconstituted system. We treated flagellin transfected BMDMs with free and biotin labeled D4T and AZT and pulled down biotin.

RPE degeneration [3] = conditions: intraperitoneal administration; previously reported; cited from earlier work
ASC oligomerization [4] = test: Alu RNA induced ASC oligomerization in human RPE cells after siRNA knockdown; assay type: cell-based; conditions: 24 hours later Alu RNA 100 pmol (FIG. 25A)
Protocol: as §3, §4

NLRC4 inflammasome = test: Flagellin-induced caspase-1 activation in wild type BMDM pre-treated with NRTIs, immunoblot; assay type: cell-based, mouse; conditions: NRTI at 100 μM for 1 hour, flagellin transfection 3 μg/ml (FIG. 27)
Protocol: FIG. 27. NRTI block Flagellin induced NLRC4 inflammasome in BMDM. Wild type BMDM cells were pre-treated with exemplary NRTIs (D4T, 3TC) at 100 μM for 1 hour, and then stimulated with flagellin transfection (3 μg/ml). Supernatant and cell lysate were collected for Caspase-1 detection. […] The caspase-1 (p20) bands are indicated with black arrow.
FIG. 28. NRTI (3TC) blocks flagellin-induced NLRC4 inflammasome in a dose dependent manner. Wild type BMDM cell were pre-treated with indicated dose of NRTI (3TC) for 1 hour, and then stimulated with Flagellin transfection (3 μg/ml). Supernatants were collected for Caspase-1 detection. […] The caspase-1 (p20) bands are indicated with black arrow.
FIG. 31. Modified NRTIs (K8, K9) block flagellin-induced NLRC4 inflammasome in BMDM. Wild type BMDM cell were pre-treated with regular NRTI (D4T, 3TC), the modified NRTIs 3-Methyl-3TC (K9) or 2-Ethyl-AZT (K8), or NLRP3 inhibitors (MCC950, CY-09) for 1 hour, and then stimulated with flagellin transfection (3 μg/ml). Supernatants were collected for secreted caspase-1 detection. […] The caspase-1 (p20) bands are indicated with black arrow.
Nucleoside reverse transcriptase inhibitors (NRTIs) are HIV therapeutics that inhibit retrovirus replication. We have previously shown that NRTIs inhibit P2X7-mediated NLRP3 inflammasome activation by an endogenous retroelement Alu RNA (SEQ ID NO: 86). Activation of NLRP3 inflammasome by Alu RNA (SEQ ID NO: 86) causes the death of retinal pigment epithelium (RPE) in geographic atrophy, a severe form of AMD. […] Currently, multiple NLRP3 inflammasome inhibitors such as MCC950, CY09 are available however, there are no inhibitors of NLRC4. So, a need exists to develop inhibitors of NLRC4 inflammasome to study NLRC4 driven diseases. Here, we show for the first time that NRTIs block flagellin induced NLRC4 inflammasome. We pretreated flagellin transfected BMDMs with DT4 and 3TC to examine caspase-1 activation.
NLRC4 oligomerization is another hallmark of inflammasome activation where high-molecular mass NLRC4 protein complexes are assembled. […]

[5] = target: T1, mouse NLR family CARD domain containing 4 (Nlrc4) (mouse, UniProt Q3UP24 1-1024); test: immunofluorescence of endogenous ASC specks and NLRC4 puncta in SINE RNA-transfected BMDMs
T1 construct: Endogenous protein of mouse BMDM / iBMDM
Protocol: FIGS. 3A and 3B. SINE RNA-induced ASC oligomerization is dependent on NLRC4 (BMDM). FIG. 3A. Immunofluorescence images of endogenous ASC specks and NLRC4 puncta in BMDMs after transfected with Alu (SEQ ID NO: 86) or B2 (SEQ ID NO: 88) RNA or transfection reagents only (Mock). […] Moreover, NLRC4 proteins assembled as puncta, and co-resided with ASC specks. FIG. 3B. ASC oligomerizations were evaluated in wild-type and Nlrc4^{-/-} BMDMs through cross-linking and western blot. […] The bands of oligomeric ASC protein were indicated by black arrow.
The activated NLRC4 inflammasome undergoes oligomerization by assembling into high-molecular mass multiprotein complexes. We first investigated in situ assembling of NLRC4 and apoptosis speck (ASC) like protein complexes in response to SINE RNA treatment of BMDMs. Immunofluorescence studies show increased NLRC4 and ASC specks in SINE RNA-treated BMDMs compared to mock-treated cells (FIG. 3A). To assess NLRC4 inflammasome assembly, WT and NLRC4 KO BMDM cells were treated with Alu RNA (SEQ ID NO: 86). Disuccinimidyl suberate (DSS) cross-linked lysates were resolved using denaturing SDS-PAGE to detect ASC oligomers and cell lysates were resolved using native polyacrylamide gel electrophoresis (NATIVE-PAGE) to detect NLRC4 oligomerization. […] NLRC4/ASC oligomerization is essential for the cleavage of pro-caspase-1 into its active form p20 and IL-1β release.

T1 sequence (Q3UP24 whole entry, the tested form may be a part): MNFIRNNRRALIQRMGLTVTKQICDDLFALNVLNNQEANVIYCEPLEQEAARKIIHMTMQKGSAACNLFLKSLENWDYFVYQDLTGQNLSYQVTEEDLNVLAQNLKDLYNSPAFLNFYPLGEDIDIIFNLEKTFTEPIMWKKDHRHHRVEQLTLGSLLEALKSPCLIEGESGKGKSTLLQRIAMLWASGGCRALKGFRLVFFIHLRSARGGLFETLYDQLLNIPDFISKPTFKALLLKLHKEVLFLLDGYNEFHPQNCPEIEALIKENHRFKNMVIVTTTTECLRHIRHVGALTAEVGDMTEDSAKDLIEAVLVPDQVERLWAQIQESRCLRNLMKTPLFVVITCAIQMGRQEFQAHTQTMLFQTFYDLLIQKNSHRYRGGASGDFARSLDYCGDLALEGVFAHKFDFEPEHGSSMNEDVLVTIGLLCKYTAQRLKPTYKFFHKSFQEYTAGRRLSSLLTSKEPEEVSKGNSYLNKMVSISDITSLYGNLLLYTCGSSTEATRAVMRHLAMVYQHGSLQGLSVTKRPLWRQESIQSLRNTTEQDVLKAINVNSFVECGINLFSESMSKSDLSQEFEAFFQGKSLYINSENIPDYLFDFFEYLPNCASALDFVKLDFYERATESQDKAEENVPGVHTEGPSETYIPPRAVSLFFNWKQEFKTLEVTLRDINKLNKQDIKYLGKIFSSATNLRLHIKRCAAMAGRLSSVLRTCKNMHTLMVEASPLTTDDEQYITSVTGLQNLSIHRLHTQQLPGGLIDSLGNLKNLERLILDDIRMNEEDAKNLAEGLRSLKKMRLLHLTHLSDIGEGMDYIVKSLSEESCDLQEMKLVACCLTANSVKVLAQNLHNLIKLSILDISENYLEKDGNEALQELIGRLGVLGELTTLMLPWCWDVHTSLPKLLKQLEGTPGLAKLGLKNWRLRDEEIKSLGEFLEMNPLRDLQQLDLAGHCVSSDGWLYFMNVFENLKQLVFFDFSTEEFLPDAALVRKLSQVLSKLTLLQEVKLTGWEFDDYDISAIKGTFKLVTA

Which results are given for “siRNA for Ddx17: siRNA for Ddx17: GGCUAGAUGUGGAAGAUGU; SEQ ID NO: 95, injected in mice (chemistry not fully specified)”?
Alu RNA induced ASC oligomerization, THP1 cells (ASC oligomerization [1]): blocked; Alu RNA induced IL-1β release, THP1 cells, ELISA (IL-1β): blocked; Alu RNA induced RPE degeneration in vivo, effect of siRNA (RPE degeneration [2]): blocked

With “siDICER: siRNA for Dicer 1: GCAGUUGUCCUAAACAGAU; SEQ ID NO: 92 (listed as RNA, chemistry not given here)” as the molecule, how does the “phosphorylation of NLRC4 after Dicer1 knockdown” value (p-NLRC4 and caspase-1; WT BMDMs (FIG. 20A)) read?
Its value is “induced the phosphorylation of NLRC4”.

What about the “caspase-1 activation after Dicer1 knockdown” value (p-NLRC4 and caspase-1; WT BMDMs (FIG. 20B)) of the same molecule?
The value was “induced the activation of caspase-1”.

With `Cc1cn([C@H]2C[C@H](N=[N+]=[N-])[C@@H](CO)O2)c(=O)[nH]c1=O` [AZT, 3′-deoxy-3′-azidothymidine 1-[(2R,4S,5S)-4-Azido-5-(hydroxymethyl)oxolan-2-yl]-5-methylpyrimidine-2,4-dione] as the molecule, how does the “binding of biotin-labeled NRTI to NLRC4 and NLRP3” value (NLRP3/NLRC4 complex) read?
The value was “interacted with NLRP3 and NLRC4; also recorded: could directly bind to NLRC4 and NLRP3 protein”.

And the “Alu RNA induced RPE degeneration in mice” value (RPE degeneration [3])?
Its value is “prevented”.

For “NLRC4 siRNA: SMARTPOOL siRNA for NLRC4: CAACUGGGCUCCUCUGUAA; SEQ ID NO: 93 (listed as RNA, chemistry not given here)”, which “Alu RNA induced ASC oligomerization, human RPE cells” value (ASC oligomerization [4]) is on record?
The value was “blocked”.

And the “Alu RNA induced ASC oligomerization, human RPE cells” value (ASC oligomerization [4]; listed as SMARTPOOL siRNA for NLRC4)?
Its value is “reduced”.

What about the “Alu RNA induced RPE degeneration in vivo, effect of siRNA” value (RPE degeneration [2]) of the same molecule?
Its value is “blocked”.

For `Cc1cn([C@H]2C=C[C@@H](CO)O2)c(=O)[nH]c1=O` [D4T, 1-[(2R,5S)-5-(hydroxymethyl)-2,5-dihydrofuran-2-yl]-5-methyl-1,2,3,4-tetrahydropyrimidine-2,4-dion], which “flagellin induced caspase-1 activation” value (NLRC4 inflammasome) is on record?
The value was “blocked; also recorded: reduced”.

And the “binding of biotin-labeled NRTI to NLRC4 and NLRP3” value (NLRP3/NLRC4 complex)?
The value was “interacted with NLRP3 and NLRC4; also recorded: could directly bind to NLRC4 and NLRP3 protein”.

And the “Alu RNA induced RPE degeneration in mice” value (RPE degeneration [3])?
Its value is “prevented”.

B1: mouse apoptosis-associated speck-like protein containing a CARD (ASC) (other, UniProt Q9EPB4 1-193, looked up)
chain: MGRARDAILDALENLSGDELKKFKMKLLTVQLREGYGRIPRGALLQMDAIDLTDKLVSYYLESYGLELTMTVLRDMGLQELAEQLQTTKEESGAVAAAASVPAQSTARTGHFVDQHRQALIARVTEVDGVLDALHGSVLTEGQYQAVRAETTSQDKMRKLFSFVPSWNLTCKDSLLQALKEIHPYLVMDLEQS
notes: Endogenous protein of mouse BMDM
Does B1 bind [5]?
Result: binds

Source: patent US20220280543A1, “DDX17 AND NLRC4 TARGETING FOR INFLAMMATORY DISEASES” (University of Virginia Patent Foundation, priority 2019, published 2022)
